Results: patent US8883782B2, “Spiro-tetracyclic ring compounds as beta-secretase modulators and methods of use” (Amgen Inc., priority 2010, dated 2014)

Assays:
[1] = target: Beta Secretase enzyme (BACE) (Homo sapiens, UniProt P56817); assay: In vitro enzymatic BACE FRET (fluorescence resonance energy transfer) assay; assay type: biochemical; settings: average IC50, enzyme assay; read-out: BACE 1 FRET assay
In short: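 Acetate buffer (0.05 M, pH 4.2), 10% DMSO final, 100 uM nonionic detergent genapol. Substrate addition (50 nM FRET peptide) initiates; one-hour incubation; Tris raises pH to neutrality before fluorescence measurement.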

[2] = system: Aβ40 in conditioned medium of cells stably expressing Amyloid Precursor Protein (APP); assay: In vitro BACE cell-based assay (Aβ40 in conditioned medium, sandwich ELISA); settings: Homo sapiens, HEK293, average IC50; read-out: HEK cell assay
In short: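 The sandwich ELISA pairs pAb40 capture (3 h, 4 °C) with 6E10 detection (2 h, 4 °C) and a streptavidin-europium TRF read-out. Supernatants come from APP-expressing cells grown in 10% FBS DMEM.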

Beta Secretase enzyme (BACE), sequence (P56817 46-501, species assumed): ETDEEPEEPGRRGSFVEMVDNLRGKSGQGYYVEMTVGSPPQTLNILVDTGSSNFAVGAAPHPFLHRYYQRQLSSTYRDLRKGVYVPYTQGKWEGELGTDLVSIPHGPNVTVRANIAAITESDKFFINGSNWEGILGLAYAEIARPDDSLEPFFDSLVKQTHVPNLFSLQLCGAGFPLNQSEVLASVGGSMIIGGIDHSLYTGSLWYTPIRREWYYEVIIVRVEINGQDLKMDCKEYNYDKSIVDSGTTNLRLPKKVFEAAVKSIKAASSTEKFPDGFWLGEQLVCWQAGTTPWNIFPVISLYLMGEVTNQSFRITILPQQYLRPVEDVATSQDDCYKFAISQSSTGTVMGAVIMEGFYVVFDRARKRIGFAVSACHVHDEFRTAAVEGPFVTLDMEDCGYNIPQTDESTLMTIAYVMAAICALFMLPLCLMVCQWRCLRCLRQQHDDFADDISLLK

| Structure (SMILES) | IC50 [1] [nM] | IC50 [2] [nM] |
| --- | --- | --- |
| CC1(C#Cc2cnc3c(c2)[C@]2(COC(N)=N2)c2c(ccc(-c4ccc(F)nc4)c2F)O3)COC1 [Example 342, (5R)-6-fluoro-7-(6-fluoro-3-pyridinyl)-3-((3-methyl-3-oxetanyl)ethynyl)spiro[chromeno[2,3-b]pyridine-5,4′-[1,3]oxazol]-2′-amine] | 2.4 | 16 |
| CC1(C#Cc2cnc3c(c2)[C@@]2(COC(N)=N2)c2c(ccc(-c4ccc(F)nc4)c2F)O3)COC1 [Example 343, (5S)-6-fluoro-7-(6-fluoro-3-pyridinyl)-3-((3-methyl-3-oxetanyl)ethynyl)spiro[chromeno[2,3-b]pyridine-5,4′-[1,3]oxazol]-2′-amine] | 391 | 1840 |
| CC1(C#Cc2cnc3c(c2)[C@]2(COC(N)=N2)c2c(ccc(-c4cncnc4)c2F)O3)COC1 [Example 344, (5R)-6-fluoro-3-((3-methyl-3-oxetanyl)ethynyl)-7-(5-pyrimidinyl)spiro[chromeno[2,3-b]pyridine-5,4′-[1,3]oxazol]-2′-amine] | 1 | 6.5 |
| CC1(C#Cc2cnc3c(c2)[C@@]2(COC(N)=N2)c2c(ccc(-c4cncnc4)c2F)O3)COC1 [Example 345, (5S)-6-fluoro-3-((3-methyl-3-oxetanyl)ethynyl)-7-(5-pyrimidinyl)spiro[chromeno[2,3-b]pyridine-5,4′-[1,3]oxazol]-2′-amine] | 94 | 650 |
| NC1=N[C@]2(CO1)c1cc(C3=CCOCC3)cnc1Oc1ccc(-c3cccnc3F)c(F)c12 [Example 346, (5R)-3-(3,6-dihydro-2H-pyran-4-yl)-6-fluoro-7-(2-fluoro-3-pyridinyl)spiro[chromeno[2,3-b]pyridine-5,4′-[1,3]oxazol]-2′-amine] | 0.8 | 6.7 |
| NC1=N[C@@]2(CO1)c1cc(C3=CCOCC3)cnc1Oc1ccc(-c3cccnc3F)c(F)c12 [Example 347, (5S)-3-(3,6-dihydro-2H-pyran-4-yl)-6-fluoro-7-(2-fluoro-3-pyridinyl)spiro[chromeno[2,3-b]pyridine-5,4′-[1,3]oxazol]-2′-amine] | 356 | 457 |
| CC1(C)C=C(c2cnc3c(c2)[C@]2(COC(N)=N2)c2c(ccc(-c4cccnc4F)c2F)O3)CCO1 [Example 348, (5R)-3-(6,6-dimethyl-3,6-dihydro-2H-pyran-4-yl)-6-fluoro-7-(2-fluoro-3-pyridinyl)spiro[chromeno[2,3-b]pyridine-5,4′-[1,3]oxazol]-2′-amine] | 0.8 | 8.8 |
| CC1(C)CC(c2cnc3c(c2)[C@]2(COC(N)=N2)c2c(ccc(-c4cccnc4F)c2F)O3)=CCO1 [Example 349, (5R)-3-(2,2-dimethyl-3,6-dihydro-2H-pyran-4-yl)-6-fluoro-7-(2-fluoro-3-pyridinyl)spiro[chromeno[2,3-b]pyridine-5,4′-[1,3]oxazol]-2′-amine] | 0.7 | 8 |
| CC1(C)C=C(c2cnc3c(c2)[C@@]2(COC(N)=N2)c2c(ccc(-c4cccnc4F)c2F)O3)CCO1 [Example 350, (5S)-3-(6,6-dimethyl-3,6-dihydro-2H-pyran-4-yl)-6-fluoro-7-(2-fluoro-3-pyridinyl)spiro[chromeno[2,3-b]pyridine-5,4′-[1,3]oxazol]-2′-amine] | 530 | 685 |
| CC1(C)CC(c2cnc3c(c2)[C@@]2(COC(N)=N2)c2c(ccc(-c4cccnc4F)c2F)O3)=CCO1 [Example 351, (5S)-3-(2,2-dimethyl-3,6-dihydro-2H-pyran-4-yl)-6-fluoro-7-(2-fluoro-3-pyridinyl)spiro[chromeno[2,3-b]pyridine-5,4′-[1,3]oxazol]-2′-amine] | 389 | 854 |
| CC1(C)C=C(c2cnc3c(c2)[C@]2(COC(N)=N2)c2c(ccc(-c4cncnc4)c2F)O3)CCO1 [Example 352, (5R)-3-(6,6-dimethyl-3,6-dihydro-2H-pyran-4-yl)-6-fluoro-7-(5-pyrimidinyl)spiro[chromeno[2,3-b]pyridine-5,4′-[1,3]oxazol]-2′-amine] | 2.8 | 19.4 |
| CC1(C)CC(c2cnc3c(c2)[C@]2(COC(N)=N2)c2c(ccc(-c4cncnc4)c2F)O3)=CCO1 [Example 353, (5R)-3-(2,2-dimethyl-3,6-dihydro-2H-pyran-4-yl)-6-fluoro-7-(5-pyrimidinyl)spiro[chromeno[2,3-b]pyridine-5,4′-[1,3]oxazol]-2′-amine] | 1.2 | 15.8 |
| CC1(C)C=C(c2cnc3c(c2)[C@@]2(COC(N)=N2)c2c(ccc(-c4cncnc4)c2F)O3)CCO1 [Example 354, (5S)-3-(6,6-dimethyl-3,6-dihydro-2H-pyran-4-yl)-6-fluoro-7-(5-pyrimidinyl)spiro[chromeno[2,3-b]pyridine-5,4′-[1,3]oxazol]-2′-amine] | 91.8 | 342 |
| CC1(C)CC(c2cnc3c(c2)[C@@]2(COC(N)=N2)c2c(ccc(-c4cncnc4)c2F)O3)=CCO1 [Example 355, (5S)-3-(2,2-dimethyl-3,6-dihydro-2H-pyran-4-yl)-6-fluoro-7-(5-pyrimidinyl)spiro[chromeno[2,3-b]pyridine-5,4′-[1,3]oxazol]-2′-amine] | 407 | 1280 |
| Cn1cc(-c2cnc3c(c2)[C@]2(COC(N)=N2)c2c(ccc(-c4cccnc4F)c2F)O3)cn1 [Example 356, (5R)-6-fluoro-7-(2-fluoro-3-pyridinyl)-3-(1-methyl-1H-pyrazol-4-yl)spiro[chromeno[2,3-b]pyridine-5,4′-[1,3]oxazol]-2′-amine] | 0.9 | 13.9 |
| Cn1cc(-c2cnc3c(c2)[C@@]2(COC(N)=N2)c2c(ccc(-c4cccnc4F)c2F)O3)cn1 [Example 357, (5S)-6-fluoro-7-(2-fluoro-3-pyridinyl)-3-(1-methyl-1H-pyrazol-4-yl)spiro[chromeno[2,3-b]pyridine-5,4′-[1,3]oxazol]-2′-amine] | 1050 | 2130 |
| NC1=N[C@@]2(CO1)c1cc(-c3cnccc3F)ccc1Oc1ncc(C3=CCOCC3)cc12 [Example 358, (5S)-3-(3,6-dihydro-2H-pyran-4-yl)-7-(4-fluoro-3-pyridinyl)spiro[chromeno[2,3-b]pyridine-5,4′-[1,3]oxazol]-2′-amine] | 2.6 | 24.6 |
| CC1(COc2cc3c(cc2F)Oc2ccc(-c4cccnc4F)cc2[C@@]32COC(N)=N2)COC1 [Example 360, (4S)-3′-fluoro-7′-(2-fluoro-3-pyridinyl)-2′-((3-methyl-3-oxetanyl)methoxy)spiro[1,3-oxazole-4,9′-xanthen]-2-amine] | 2.9 | 22.4 |
| NC1=N[C@@]2(CO1)c1cc(-c3cc(Cl)cnc3F)ccc1Oc1cnc(C3=CCOCC3)cc12 [Example 361, (5S)-7-(5-chloro-2-fluoro-3-pyridinyl)-3-(3,6-dihydro-2H-pyran-4-yl)spiro[chromeno[2,3-c]pyridine-5,4′-[1,3]oxazol]-2′-amine] | 0.5 | 6.1 |
| NC1=N[C@@]2(CO1)c1cc(-c3cc(C4=CCOCC4)cnc3F)ccc1Oc1cnc(C3=CCOCC3)cc12 [Example 362, (5S)-3-(3,6-dihydro-2H-pyran-4-yl)-7-(5-(3,6-dihydro-2H-pyran-4-yl)-2-fluoro-3-pyridinyl)spiro[chromeno[2,3-c]pyridine-5,4′-[1,3]oxazol]-2′-amine] | 6.3 | 114 |
| NC1=N[C@@]2(CO1)c1cc(-c3ccc(F)nc3)ccc1Oc1cnc(C3CCOCC3)cc12 [Example 363, (5S)-7-(6-fluoro-3-pyridinyl)-3-(tetrahydro-2H-pyran-4-yl)spiro[chromeno[2,3-c]pyridine-5,4′-[1,3]oxazol]-2′-amine] | 33.7 | 270 |
| Cc1cc(-c2cc3c(cn2)Oc2ccc(-c4cccnc4F)cc2[C@@]32COC(N)=N2)on1 [Example 364, (5S)-7-(2-fluoro-3-pyridinyl)-3-(3-methyl-5-isoxazolyl)spiro[chromeno[2,3-c]pyridine-5,4′-[1,3]oxazol]-2′-amine] | 6.9 | 62.5 |
| Cn1cc(-c2cc3c(cn2)Oc2ccc(-c4ccc(F)nc4)cc2[C@@]32COC(N)=N2)cn1 [Example 365, (5S)-7-(6-fluoro-3-pyridinyl)-3-(1-methyl-1H-pyrazol-4-yl)spiro[chromeno[2,3-c]pyridine-5,4′-[1,3]oxazol]-2′-amine] | 10.8 | 42.4 |
| Cc1cc(-c2cc3c(cn2)Oc2ccc(-c4ccccc4)cc2[C@@]32COC(N)=N2)on1 [Example 366, (5S)-3-(3-methyl-5-isoxazolyl)-7-phenylspiro[chromeno[2,3-c]pyridine-5,4′-[1,3]oxazol]-2′-amine] | 80.1 | 361 |
| Cn1cc(-c2cc3c(cn2)Oc2ccc(-c4ccccc4)cc2[C@@]32COC(N)=N2)cn1 [Example 367, (5S)-3-(1-methyl-1H-pyrazol-4-yl)-7-phenylspiro[chromeno[2,3-c]pyridine-5,4′-[1,3]oxazol]-2′-amine] | 13.3 | 74 |
| CC1(C)C[C@H](c2cc3c(cn2)Oc2ccc(-c4cccnc4)cc2[C@@]32COC(N)=N2)CCO1 [Example 368, (5S)-3-((4R)-2,2-dimethyltetrahydro-2H-pyran-4-yl)-7-(3-pyridinyl)spiro[chromeno[2,3-c]pyridine-5,4′-[1,3]oxazol]-2′-amine] | 10.4 | 37.9 |
| CC1(C)CC(c2cc3c(cn2)Oc2ccc(-c4ccc(F)nc4)cc2[C@@]32COC(N)=N2)=CCO1 [Example 370, (5S)-3-(2,2-dimethyl-3,6-dihydro-2H-pyran-4-yl)-7-(6-fluoro-3-pyridinyl)spiro[chromeno[2,3-c]pyridine-5,4′-[1,3]oxazol]-2′-amine] | 3.6 | 23.7 |
